Measured values: patent publication US11630110B2, “Methods to identify protein interaction” (AGENCY FOR SCIENCE, TECHNOLOGY AND RESEARCH, priority 2017, dated 2023)

How the values were obtained:
NF-kβ signaling pathway = assay: Western blotting of NFκB signalling pathway members; format: cell-based; settings: K562 cells, 20 μM methotrexate 48 hours, presence and absence of TNF; FIG. 16A
Procedure: Cells were washed with DPBS (without calcium and magnesium) once, then lysed in TOTEX Buffer (20 mM Hepes at pH 7.9, 0.35M NaCl, 20% Glycerol, 1% NP-40, 1 mM MgCl2, 0.1 mM EGTA) including 50 mM NaF, 0.3 mM […] and protease inhibitor cocktail. Supernatant including proteins was collected, followed by centrifugation at full speed for 20 minutes. Western blotting was performed by following standard procedures using the following antibodies: Rabbit Anti-phospho-IKKα/β (S180/181) (1:1,000; Bioworld Technology, BS5082), Rabbit Anti-phospho-IKBα (S32) (1:1,000; Cell Signalling Technology, 2859), Rabbit Anti-IKBα (1:1,000; Santa Cruz Biotechnology, sc-371), Rabbit Anti-phospho-p65 ([…]) (1:1,000; Cell Signalling Technology, 3031), Mouse Anti-HSP90 (1:1,000; BD, 610419), Goat Anti-Rabbit IgG-HRP (1:5,000; Santa Cruz Biotechnology, sc-2054) and Goat Anti-Mouse IgG-HRP (1:5,000; Santa Cruz Biotechnology, sc-2005).

K562 cells = assay: DNA content analysis by FACS of propidium iodide staining; format: cell-based; settings: 20 μM methotrexate, 48 hours, vs DMSO, FIG. 34

Compound: CN(Cc1cnc2nc(N)nc(N)c2n1)c1ccc(C(=O)N[C@@H](CCC(=O)O)C(=O)O)cc1 [methotrexate]
- activation of the NF-kβ signaling pathway (NF-kβ signaling pathway): suppressing activation
- phosphorylation of IKKα/β complex, IκBα and p65 (NF-kβ signaling pathway): inhibiting phosphorylation
- cell cycle state of K562 cells (K562 cells): arrested in the S phase
